Test results as given in US10087417B2, “Three-dimensional model of human cortex” (priority 2015, dated 2018).

Key:
Format in all cases: cell-based, human
[1] = system: neocortical neurons generated from hPSCs
neocortical organoids [2] = details: 3 μM cocaine days 32-44; day 66; H9 and H14
Procedure: Adherent cells in culture were fixed with 4% PFA for 10 min, followed by PBS wash. Neocortical organoids embedded in collagen gel were immersed in 4% PFA for 20 min and cryoprotected in 20% sucrose in PBS for 20 min. Cryostat sections (10 μm) were thaw-mounted onto gelatin-subbed slides. Cells and tissue sections were blocked with 0.2% Triton X-100 in PBS supplemented with 5% BSA and 10% goat serum. Cells were then incubated with primary antibodies in 0.2% Triton X-100 in PBS with 5% BSA and 5% goat serum: rabbit anti-BF1 (1:100; Abcam), rat anti-CD133 (1:100; Millipore), rat anti-CTIP2 (1:50; Abcam), rabbit anti-CUX1 (1:100; Santa Cruz Biotechnology), rabbit anti-EMX1 (1:50; Sigma), mouse anti-gamma-tubulin (1:500; Sigma), rat anti-HOXB4 (1:50; DSHB), mouse anti-Ki67 (1:100; BD Biosciences), rabbit anti-N-cadherin (1:100; Abcam), mouse anti-Nestin (1:50; R&D Systems), mouse anti-NKX2.1 (1:200; Chemicon), mouse anti-PAX6 (1:50; DSHB), rabbit anti-PAX6 (1:300; Covance), rabbit anti-PH3 (1:500; Cell Signaling Technology), mouse anti-Reelin (1:200; Millipore), rabbit anti-TBR1 (1:1000; Abcam), and mouse anti-TUJ1 (1:2,000; Promega). […] TUJ1+ neocortical areas were calculated by normalization of TUJ1+ areas in the neocortical organoids at day 66 (using only sections from the center of each organoid) to organoid size at day 24. […]

neocortical organoids [3] = details: 3 μM cocaine 1 h every other day, days 32-44; measured day 44
Procedure: Endogenous ROS were measured by incubating neocortical organoids at day 44 with 100 μM 2′,7′-dichlorofluorescein diacetate (DCFH-DA) (Sigma-Aldrich) for 30 min with or without cocaine. The organoids were washed and dissolved in 1% Triton X-100 in PBS. Fluorescence for each sample was measured at an excitation wavelength of 485 nm, and an emission wavelength of 530 nm using a fluorescence microplate reader (Techan Genios). Protein concentration for each sample was determined using the BCA assay (Pierce BCA® Protein Assay Kits; Thermo Scientific), according to manufacturer's instructions. The level of endogenous ROS for each sample was determined by dividing the fluorescence units by the concentration of protein in the lysate.
Taking into consideration that cocaine concentrations in the fetal rat neocortex drop rapidly to negligible levels 1 h after cocaine administration (Lee et al, PLoS Med. 5:e117, 2008), and to create a physiologically-meaningful drug treatment schedule in vitro, the neocortical organoids were exposed to a pharmacologically-relevant dose of cocaine, 3 μM (Kindberg et al, Dis. Model Mech. 7:1397-1405, 2014), for 1 h every other day, from days 32-44. […] In the present model, post-mitotic neurons migrated toward the periphery of the NE. […] The percentage of BrdU^+ cells that expressed TUJ1 was increased by cocaine as compared to control (FIG. 5F and FIG. 6B).

neocortical organoids [4] = details: 3 μM cocaine days 32-44, days 51-52
Procedure: (§1) FIGS. 5A-5I is a series of panels showing neurodevelopmental effects of cocaine mediated by CYP3A5. FIG. 5A is an image showing RT-PCR analysis of expression of CYP3A family genes at different stages of neocortical organoid differentiation. “Neocortical organoids” indicates day 44 of differentiation. FIG. 5B is a graph showing ROS formation in the neocortical organoids in presence or absence of cocaine. Neocortical organoids were treated with 3 μM cocaine for 1 h every other day from day 32 to day 44, and endogenous ROS was measured at day 44. n=6. FIG. 5C is a graph showing effects of CYP3A5 or CYP3A43 knockdown on cocaine-induced ROS generation in H9 (dashed line, in the absence of cocaine). n=6. FIG. 5D is a graph showing proliferation of PAX6^+ NE cells of neocortical organoids in the presence or absence of cocaine in H9. Proliferation was examined at day 45 with 1 h BrdU (10 μM) incorporation. n=5. FIG. 5E is a graph showing effects of CYP3A5 or CYP3A43 knockdown on cocaine-induced inhibition of proliferation of PAX6^+ NE cells in H9 (dashed line, in the absence of cocaine). n=7. FIG. 5F is graph showing neuronal differentiation in neocortical organoids in the presence or absence of cocaine in H9. Neuronal differentiation was analyzed 24 h after 1 h BrdU (10 μM) treatment from day 51 to day 52. […] FIG. 5G is a graph showing effects of CYP3A5 or CYP3A43 knockdown on cocaine-induced premature neuronal differentiation in H9 (dashed line, in the absence of cocaine). n=7, FIG. 5H is a graph showing neural tissue development in the presence or absence of cocaine in H9. TUJ1^+ areas in the neocortical organoids were analyzed at day 66. TUJ1^+ areas expressed as percentages of total organoid area on day 24 are shown. n=6. FIG. 5I is a graph showing effects of CYP3A5 or CYP3A43 knockdown on cocaine-induced inhibition of neural tissue development in H9 (dashed line, in the absence of cocaine). n=6. Data are shown as means±SEM. Unpaired two-tailed Student's t-test for H9 and H14 in FIG. 5B, and for FIGS. 5D, 5F, and 5H. […]

[5] = system: PAX6+ NE cells of neocortical organoids; details: 3 μM cocaine 1 h every other day, days 32-44; day 45; H9 and H14
Procedure: as §1

| SMILES | action potentials recorded in current clamp mode [1] | development of the TUJ1+ area (neocortical organoids [2]) | ROS generation in neocortical organoids (neocortical organoids [3]) | migration of BrdU-labeled TUJ1 neurons outwards to the periphery of the NE area (neocortical organoids [4]; BrdU 1 h pulse, 24 h chase) | percentage of BrdU+ cells that expressed TUJ1, compared to control (neocortical organoids [4]; H9 and H14) | proliferation of PAX6+ NE cells [5] |
| --- | --- | --- | --- | --- | --- | --- |
| NC1=N[C@H](O)[C@H]2[C@H]3O[C@]4(O)O[C@@H]([C@@H](O)[C@@]2(N1)[C@@H]4O)[C@]3(O)CO [tetrodotoxin] | blocked |  |  |  |  |  |
| COC(=O)[C@H]1[C@@H](OC(=O)c2ccccc2)C[C@@H]2CC[C@H]1N2C [cocaine] |  | significantly inhibited | ROS accumulation was observed | increased | increased | inhibited |
